Laboratory results from patent publication US6107324A, “5-HT2A receptor inverse agonists” (priority 1999, dated 2000).
Numbering of substitutions follows the chain as printed. Like-named read-outs stand apart in the source and are kept apart here. Values belong to the compound of their own block, whether it stands above or below them.

Experiments:
[1] = molecular target: T1, constitutively active mutant human 5HT2C receptor AP-1 (Homo sapiens, UniProt P28335, S310K); assay: [35S]GTPγS binding assay, constitutively active mutant human 5HT2C receptor AP-1; assay type: biochemical
T1 sequence (P28335 33-458 S310K): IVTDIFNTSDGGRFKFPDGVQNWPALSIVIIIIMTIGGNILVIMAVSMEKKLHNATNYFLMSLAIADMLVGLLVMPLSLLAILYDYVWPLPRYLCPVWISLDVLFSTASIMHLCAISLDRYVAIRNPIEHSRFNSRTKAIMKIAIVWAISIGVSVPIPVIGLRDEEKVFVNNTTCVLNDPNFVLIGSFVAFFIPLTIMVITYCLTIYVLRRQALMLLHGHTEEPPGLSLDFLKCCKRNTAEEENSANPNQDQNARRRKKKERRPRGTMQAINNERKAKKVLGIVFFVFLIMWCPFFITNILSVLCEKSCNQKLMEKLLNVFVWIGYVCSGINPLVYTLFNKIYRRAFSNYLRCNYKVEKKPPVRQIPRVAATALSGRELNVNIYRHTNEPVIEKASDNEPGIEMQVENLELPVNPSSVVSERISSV

[2] = test system: Adult male Sprague-Dawley rats; assay: Amphetamine-stimulated locomotor activity in rats; assay type: in vivo
Excerpt: A 5HT2A receptor antagonist or inverse agonist is expected to decrease amphetamine-stimulated locomotion without affecting baseline locomotion. See, for example, Soresnon, et al, 266(2) J. Pharmacol. Exp. Ther. 684 (1993). […] For the following study, the following parameters and protocol were utilized:
Adult male Sprague-Dawley rats were utilized for these studies. Animals were housed in groups of 2-3 in hanging plastic cages with food and water available at all times. Animals were weighed and handled for at least one day prior to surgery and throughout the studies. For these studies, Vehicle consisted of 90% ethanol (100%) and 10% water.
A San Diego Instruments Flex Field apparatus was used to quantify baseline and amphetamine-stimulated locomotor activity. This apparatus consists of four 16"×16" clear plastic open fields. Photocell arrays (16 in each dimension) interfaced with a personal computer to automatically quantify activity. Several measures of activity can be assessed with the apparatus, including total photocell beam breaks. Animals (vehicle control and Compound treated) were injected s.c. 30 minutes prior to initiation of analysis. Following this 30 minute period, animals were placed individually into an open field and baseline activity was assessed for 30 minutes (habituation phase). […]

[3] = molecular target: T2, endogenous human 5-HT2C receptor (Homo sapiens, UniProt P28335)
T2 sequence (P28335 33-458): T1 sequence (P28335 33-458 S310K) with K278S

[4] = test system: human mutated 5HT2A receptor, AP-3; assay: Inositol phosphate (IP3) accumulation assay, AP-3; assay type: cell-based; details: preferred compounds tables (μM)
[5] = molecular target: T3, Wild Type Human 5HT2A Receptor (Homo sapiens, UniProt P28223); assay: [3H]LSD competitive binding assay, wild type 5HT2A
T3 construct: expressed in transfected cells; host or cells: COS-7 cells, transient transfection (pCMV); membranes

[6] = test system: 5HT2A receptor (cerebral cortex); assay: I125-LSD displacement from rat brain sections, cerebral cortex (5HT2A); assay type: binding, Sprague-Dawley rats; details: 1 micromolar compound, 1 nanomolar I125-LSD, 30 minutes room temperature

T3 sequence (P28223 whole entry T25N/H452Y): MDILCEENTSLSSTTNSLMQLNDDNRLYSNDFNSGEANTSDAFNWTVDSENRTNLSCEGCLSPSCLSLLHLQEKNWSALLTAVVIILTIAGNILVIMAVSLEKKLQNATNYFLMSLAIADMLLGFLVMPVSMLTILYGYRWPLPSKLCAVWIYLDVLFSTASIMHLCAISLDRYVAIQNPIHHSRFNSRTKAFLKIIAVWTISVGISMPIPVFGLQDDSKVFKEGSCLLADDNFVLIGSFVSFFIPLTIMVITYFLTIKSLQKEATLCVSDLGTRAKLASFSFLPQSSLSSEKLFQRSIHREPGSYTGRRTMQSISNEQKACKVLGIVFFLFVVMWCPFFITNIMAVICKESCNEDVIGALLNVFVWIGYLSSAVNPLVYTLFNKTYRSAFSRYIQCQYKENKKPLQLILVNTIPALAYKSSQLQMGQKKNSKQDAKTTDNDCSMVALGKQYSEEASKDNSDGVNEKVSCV

SMILES: Clc1ccc2c(c1)N=C(N1CCNCC1)c1ccccc1N2 [Normethylclozapin]
IC50 [1]: 21.4 nM

SMILES: Cn1cc(Br)c(-c2cccc(NC(=O)c3cccs3)c2)n1 [Compound 116102, N-[3-(4-bromo-1-methylpyrazol-3-yl)phenyl][2-thienyl]carboxamide]
amphetamine-stimulated locomotion ([2]; s.c., 0.1, 1.0, 5.0, 10.0 mg/kg, d-amphetamine sulfate 1.0 mg/kg, photobeam breaks): with exception of the highest dose (10 mg/kg), in vivo, the tested doses of Compound 116102 evidenced a decrease in the amphetamine-stimulated locomotion
dose-response pattern of locomotor activity ([2]; s.c., 0.1-10.0 mg/kg, FIGS. 17A-C): "inverted U" shaped pattern

SMILES: Cn1cc(Br)c(-c2cccc(NC(=O)Nc3ccc(OC(F)(F)F)cc3)c2)n1 [Compound 103487, N-[3-(4-bromo-1-methylpyrazol-3-yl)phenyl][{(4-trifluoromethoxy)phenyl}amino]carboxamide]
inhibition at 10 µM ([1]; read-out: GTPγS AP-1 Percent Inhibition Relative To Positive Control (Primary)): -1%
inhibition at 10 µM ([1]; read-out: GTPγS AP-1 Percent Inhibition Relative To Positive Control (Reconfirm)): 31%

[35S]GTPγS binding, serotonin stimulation and inhibition by mianserin ([1]; FIG. 10, AP-1 receptors in 293T cells, mianserin 30 μM, Wallac scintistrips): inhibition
inhibition of serotonin-stimulated [35S]GTPγS binding ([3]; 30 μM (FIG. 9), FIG. 10 on Wallac scintistrips): inhibits this response
effect on basal constitutive [35S]GTPγS binding ([3]; FIG. 10, membranes expressing endogenous human 5-HT2C receptor): partial inverse agonist
SMILES: CN1CCN2c3ccccc3Cc3ccccc3C2C1 (stereo not shown) [mianserin]

SMILES: Cn1cc(Br)c(-c2cccc(NC(=O)OC(C)(C)C)c2)n1 [Compound 116192]
IC50 [4]: 0.057 µM

SMILES: CC(C)c1ccc(NC(=O)Nc2cccc(-c3nn(C)cc3Br)c2)cc1 [Compound 116110, {[3-(4-bromo-1-methylpyrazol-3-yl)phenyl]amino}-N-[4-(methylethyl)phenyl]carboxamide]
IC50 [5]: 338 nM

SMILES: COc1ccc(OC(=O)Nc2cccc(-c3nn(C)cc3Br)c2)cc1 [Compound 116100, N-[3-(4-bromo-1-methylpyrazol-3-yl)phenyl][4-methoxyphenoxy]carboxamide]
displacement of I125-LSD from cortex [6]: selectively displace the I^125 -LSD from the cortex (5HT2A)
IC50 [4]: 0.0003 µM

SMILES: CSc1ccc2c(c1)C(N1CCN(C)CC1)Cc1ccccc1S2 (stereo not shown) [Methiothepin]
IC50 [1]: 20.4 nM
